From PMC8593021, “Biophysical and functional characterization of the human TAS1R2 sweet taste receptor overexpressed in a HEK293S inducible cell line” (Scientific Reports, 2021)

T1: hTAS1R2 (Homo sapiens, UniProt Q8TE23)
T1 sequence (Q8TE23 20-839): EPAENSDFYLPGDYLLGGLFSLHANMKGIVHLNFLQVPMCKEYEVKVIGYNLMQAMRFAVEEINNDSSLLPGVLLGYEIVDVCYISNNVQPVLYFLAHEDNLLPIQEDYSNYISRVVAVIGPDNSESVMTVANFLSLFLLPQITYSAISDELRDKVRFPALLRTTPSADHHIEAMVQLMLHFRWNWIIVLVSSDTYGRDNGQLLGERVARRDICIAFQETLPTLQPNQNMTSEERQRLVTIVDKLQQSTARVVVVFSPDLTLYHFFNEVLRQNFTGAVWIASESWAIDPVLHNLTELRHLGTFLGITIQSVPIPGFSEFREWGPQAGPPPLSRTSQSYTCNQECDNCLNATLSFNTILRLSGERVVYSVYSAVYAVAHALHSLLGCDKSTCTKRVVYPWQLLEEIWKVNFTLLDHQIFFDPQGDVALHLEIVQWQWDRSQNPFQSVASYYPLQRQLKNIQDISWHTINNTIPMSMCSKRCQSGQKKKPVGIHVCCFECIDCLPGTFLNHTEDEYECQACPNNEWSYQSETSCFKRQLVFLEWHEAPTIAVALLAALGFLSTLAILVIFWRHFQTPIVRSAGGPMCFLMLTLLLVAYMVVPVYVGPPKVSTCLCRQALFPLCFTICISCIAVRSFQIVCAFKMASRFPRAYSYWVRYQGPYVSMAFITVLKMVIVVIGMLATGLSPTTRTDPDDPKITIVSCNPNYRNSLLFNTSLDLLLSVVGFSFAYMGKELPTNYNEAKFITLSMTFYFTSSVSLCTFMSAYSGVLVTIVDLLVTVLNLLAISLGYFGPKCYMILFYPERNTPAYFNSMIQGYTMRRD

T2: hTAS1R2/hTAS1R3 (Homo sapiens, UniProt Q7RTX0+Q8TE23)
T2 construct: expressed in transfected cells; host or cells: HEK293T cells stably expressing Gα16gust44, transiently transfected
T2 sequence (Q8TE23 20-839): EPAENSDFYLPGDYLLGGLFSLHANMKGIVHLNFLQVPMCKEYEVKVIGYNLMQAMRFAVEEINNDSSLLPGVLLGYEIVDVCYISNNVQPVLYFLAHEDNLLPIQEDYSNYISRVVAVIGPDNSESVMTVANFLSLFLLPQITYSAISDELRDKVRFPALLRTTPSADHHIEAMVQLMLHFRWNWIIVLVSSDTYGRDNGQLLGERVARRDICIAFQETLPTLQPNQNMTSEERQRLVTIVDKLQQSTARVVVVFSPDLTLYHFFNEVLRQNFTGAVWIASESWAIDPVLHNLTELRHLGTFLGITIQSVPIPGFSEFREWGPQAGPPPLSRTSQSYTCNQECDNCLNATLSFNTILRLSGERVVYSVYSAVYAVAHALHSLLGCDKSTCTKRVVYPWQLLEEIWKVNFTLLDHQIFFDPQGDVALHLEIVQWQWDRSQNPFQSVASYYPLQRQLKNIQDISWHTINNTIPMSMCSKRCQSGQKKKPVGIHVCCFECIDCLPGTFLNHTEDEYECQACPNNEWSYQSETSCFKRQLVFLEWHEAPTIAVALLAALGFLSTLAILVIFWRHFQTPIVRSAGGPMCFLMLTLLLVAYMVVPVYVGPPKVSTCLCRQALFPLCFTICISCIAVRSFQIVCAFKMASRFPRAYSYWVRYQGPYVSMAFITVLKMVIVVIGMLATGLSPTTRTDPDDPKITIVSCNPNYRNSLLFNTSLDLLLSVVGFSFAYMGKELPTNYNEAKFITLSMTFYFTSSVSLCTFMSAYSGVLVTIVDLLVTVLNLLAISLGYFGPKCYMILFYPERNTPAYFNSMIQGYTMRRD
T2 sequence (Q7RTX0 21-852): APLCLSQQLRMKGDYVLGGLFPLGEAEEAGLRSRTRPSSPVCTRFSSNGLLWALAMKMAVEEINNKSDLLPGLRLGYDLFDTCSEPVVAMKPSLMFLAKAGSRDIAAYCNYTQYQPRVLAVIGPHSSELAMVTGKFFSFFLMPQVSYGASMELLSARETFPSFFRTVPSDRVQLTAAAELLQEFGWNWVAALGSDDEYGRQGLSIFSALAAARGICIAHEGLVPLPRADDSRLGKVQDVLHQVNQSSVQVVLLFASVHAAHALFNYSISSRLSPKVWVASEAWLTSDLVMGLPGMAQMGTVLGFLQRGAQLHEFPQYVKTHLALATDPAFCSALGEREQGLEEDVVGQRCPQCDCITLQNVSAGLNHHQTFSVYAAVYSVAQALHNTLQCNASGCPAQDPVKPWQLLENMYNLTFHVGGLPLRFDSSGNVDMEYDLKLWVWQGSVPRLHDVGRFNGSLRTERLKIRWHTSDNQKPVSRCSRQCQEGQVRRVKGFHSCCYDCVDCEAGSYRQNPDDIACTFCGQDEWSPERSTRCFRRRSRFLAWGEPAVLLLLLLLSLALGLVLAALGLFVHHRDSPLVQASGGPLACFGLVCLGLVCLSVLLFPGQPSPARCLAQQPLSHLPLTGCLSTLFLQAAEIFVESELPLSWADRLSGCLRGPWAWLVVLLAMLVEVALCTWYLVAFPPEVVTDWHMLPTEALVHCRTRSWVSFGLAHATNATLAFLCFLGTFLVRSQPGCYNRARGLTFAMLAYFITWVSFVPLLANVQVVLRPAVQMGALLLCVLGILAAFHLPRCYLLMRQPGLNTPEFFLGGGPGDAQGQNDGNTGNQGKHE

T3: hTAS1R3 (Homo sapiens, UniProt Q7RTX0)
T3 construct: expressed in transfected cells; host or cells: HEK293T cells stably expressing Gα16gust44, transiently transfected
T3 sequence (Q7RTX0 21-852): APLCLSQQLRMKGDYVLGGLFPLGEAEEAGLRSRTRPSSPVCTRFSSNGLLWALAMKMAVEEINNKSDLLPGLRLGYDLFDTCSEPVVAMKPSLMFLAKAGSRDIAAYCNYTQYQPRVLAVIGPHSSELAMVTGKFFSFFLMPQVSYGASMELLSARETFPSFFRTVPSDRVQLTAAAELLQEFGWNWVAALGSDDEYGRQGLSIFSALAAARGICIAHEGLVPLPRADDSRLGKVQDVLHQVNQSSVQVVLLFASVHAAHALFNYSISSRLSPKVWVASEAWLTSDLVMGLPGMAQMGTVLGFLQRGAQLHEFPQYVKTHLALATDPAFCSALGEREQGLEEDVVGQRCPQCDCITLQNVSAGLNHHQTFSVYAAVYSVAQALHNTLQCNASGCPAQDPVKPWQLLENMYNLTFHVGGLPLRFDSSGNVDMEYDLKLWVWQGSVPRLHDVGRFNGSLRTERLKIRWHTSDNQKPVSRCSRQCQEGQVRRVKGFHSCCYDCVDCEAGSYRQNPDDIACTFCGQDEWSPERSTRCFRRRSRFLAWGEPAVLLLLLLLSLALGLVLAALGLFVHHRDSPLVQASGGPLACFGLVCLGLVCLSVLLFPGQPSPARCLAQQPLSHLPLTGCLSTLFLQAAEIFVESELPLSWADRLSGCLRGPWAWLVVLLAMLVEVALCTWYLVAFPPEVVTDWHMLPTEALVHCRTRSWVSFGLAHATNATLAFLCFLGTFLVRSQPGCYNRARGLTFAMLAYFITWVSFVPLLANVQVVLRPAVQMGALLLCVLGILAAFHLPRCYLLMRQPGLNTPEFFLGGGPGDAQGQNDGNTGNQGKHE

B1: FLAG-tagged human TAS1R2 (taste receptor type 1, member 2) (receptor, UniProt Q8TE23 20-839, looked up)
chain: EPAENSDFYLPGDYLLGGLFSLHANMKGIVHLNFLQVPMCKEYEVKVIGYNLMQAMRFAVEEINNDSSLLPGVLLGYEIVDVCYISNNVQPVLYFLAHEDNLLPIQEDYSNYISRVVAVIGPDNSESVMTVANFLSLFLLPQITYSAISDELRDKVRFPALLRTTPSADHHIEAMVQLMLHFRWNWIIVLVSSDTYGRDNGQLLGERVARRDICIAFQETLPTLQPNQNMTSEERQRLVTIVDKLQQSTARVVVVFSPDLTLYHFFNEVLRQNFTGAVWIASESWAIDPVLHNLTELRHLGTFLGITIQSVPIPGFSEFREWGPQAGPPPLSRTSQSYTCNQECDNCLNATLSFNTILRLSGERVVYSVYSAVYAVAHALHSLLGCDKSTCTKRVVYPWQLLEEIWKVNFTLLDHQIFFDPQGDVALHLEIVQWQWDRSQNPFQSVASYYPLQRQLKNIQDISWHTINNTIPMSMCSKRCQSGQKKKPVGIHVCCFECIDCLPGTFLNHTEDEYECQACPNNEWSYQSETSCFKRQLVFLEWHEAPTIAVALLAALGFLSTLAILVIFWRHFQTPIVRSAGGPMCFLMLTLLLVAYMVVPVYVGPPKVSTCLCRQALFPLCFTICISCIAVRSFQIVCAFKMASRFPRAYSYWVRYQGPYVSMAFITVLKMVIVVIGMLATGLSPTTRTDPDDPKITIVSCNPNYRNSLLFNTSLDLLLSVVGFSFAYMGKELPTNYNEAKFITLSMTFYFTSSVSLCTFMSAYSGVLVTIVDLLVTVLNLLAISLGYFGPKCYMILFYPERNTPAYFNSMIQGYTMRRD
notes: human TAS1R2 (taste receptor type 1, member 2), UniProtKB Q8TE23, full-length protein from a codon-optimised synthetic gene; the purified protein is still detected and captured by anti-FLAG M2; Theoretical mass of FLAG-tagged hTAS1R2 printed as 96.2 kDa; In LMNG detergent; also called hTAS1R2; FLAG-hTAS1R2; not shown: FLAG, N-terminal, kept

Key:
hTAS1R2 [1] = target: T1, hTAS1R2; assay: Intrinsic tryptophan fluorescence ligand binding to purified detergent-solubilized hTAS1R2; parameters: made in house; settings: purified FLAG-tagged hTAS1R2 0.10 µM in PBS, 0.1% LMNG, 20 °C; λex 280 nm, λem 340 nm
Description: Intrinsic fluorescence spectra were recorded with a Cary Eclipse spectrofluorimeter (Varian Instruments, Les Ulis, France) equipped with a Peltier temperature control unit. The temperature was maintained at 20 °C. FLAG-tagged hTAS1R2 protein (0.10 µM in PBS, 0.1% LMNG buffer) was excited at 280 nm, and the emission spectra were recorded from 300 to 400 nm, with a 10 nm bandwidth for both excitation and emission in the presence and absence of ligands. The sweetener solutions were freshly prepared in PBS-0.1% LMNG buffer. Successive aliquots of ligand solutions were added to 400 µL of the FLAG-tagged hTAS1R2 solution. […] The fluorescence measurements were corrected for bleaching and nonspecific buffer quenching. The dissociation constants (Kd) were calculated from a plot of the fluorescence intensity measured at the maximum emission wavelength (340 nm) versus the concentration of total ligand obtained with a standard nonlinear regression method using SigmaPlot software (Systat Software Inc., San Jose, CA, USA). The reported Kd values are the average of triplicate measurements performed on at least three independently purified protein samples.

hTAS1R2/hTAS1R3 = target: T2, hTAS1R2/hTAS1R3; assay: Calcium assay (GCaMP6S) in HEK293T-Gα16gust44 cells transfected with hTAS1R2-FLAG and hTAS1R3-FLAG; assay type: cell-based; settings: HEK293T-Gα16gust44 cells transiently transfected with GCaMP6S
Source text: (§1) We used a calcium imaging assay to establish dose–response curves for the sweet taste receptor hTAS1R2/hTAS1R3 and determine EC50 values for the sweet stimuli previously tested in spectrofluorimetric experiments. We cloned the cDNAs coding hTAS1R2 and hTAS1R3 subunits into pcDNA6 and pcDNA4 expression plasmids, respectively, and we added FLAG tag to C-terminus of each construct to measure protein expression level by immunocytochemistry as described previously. HEK293T cells stably transfected with Gα16gust44 were seeded at a density of 0.35 × 10^6 cells per well into 96-well black walled, clear bottom microtiter plates (Falcon) in high-glucose DMEM supplemented with 2 mM GlutaMAX, 10% dialyzed foetal bovine serum, penicillin/streptomycin and G418 (400 µg/mL) at 37 °C and 6.3% CO2, in a humidified atmosphere. After 48 h, the cells were transiently transfected with each TAS1R subunit (60 ng/well for each plasmid) and plasmid pGP-CMV-GCaMP6S (Addgene #40753, 50 ng per well) coding for a green fluorescent protein-based calcium indicator, using Fugene HD (0.4 µL/well). After a further 24 h incubation, the cells were washed twice with buffer C1 and then stimulated with sweet tasting compounds. After excitation at 488 nm, calcium responses were recorded at 510 nm using a Molecular Devices FlexStation 3 system. Acquisition was made simultaneously from 8 wells corresponding to the range of taste solutions. We averaged the responses of 18 wells receiving the same stimulus one three independent experiments. We subtracted the mean calcium traces of mock-transfected cells stimulated with the same concentration of stimulus. Plots of the fluorescence variation amplitude versus concentration were fitted by four-parameter logistic nonlinear regression allowing us to calculate the EC50 values of activation.

hTAS1R3 = target: T3, hTAS1R3; assay: Calcium assay (GCaMP6S) in HEK293T-Gα16gust44 cells transfected with hTAS1R3-FLAG alone; assay type: cell-based; settings: HEK293T-Gα16gust44 cells transiently transfected with GCaMP6S and hTAS1R3-FLAG alone
Source text: as §1

hTAS1R2 [2] = target: T1, hTAS1R2; assay: Calcium assay (GCaMP6S) in HEK293T-Gα16gust44 cells transfected with hTAS1R2-FLAG alone; assay type: cell-based; settings: HEK293T-Gα16gust44 cells transiently transfected with GCaMP6S and hTAS1R2-FLAG alone
Source text: as §1, with “After a further 24 h incubation, the cells were washed twice with buffer C1 and then stimulated with sweet tasting compounds.” left out, “Acquisition was made simultaneously from 8 wells corresponding to the range of taste solutions. We averaged the responses of 18 wells receiving the same stimulus one three independent experiments. We subtracted the mean calcium traces of mock-transfected cells stimulated with the same concentration of stimulus.” left out

[3] = target: the molecule itself; assay: SEC-MALS; pooled gel filtration peak 4 (fractions 14-16) of FLAG-tagged hTAS1R2; Superdex 200 Increase 3.2/300, PBS with 0.1% LMNG, pH 7.3, 0.1 mL/min; MALS, RI and UV (280 nm) detectors; protein-detergent complexes

Molecule | Kd (hTAS1R2 [1]) | EC50 (hTAS1R2/hTAS1R3) | EC50 hTAS1R3 (hTAS1R3) | EC50 (hTAS1R2 [2]) | stoichiometry N [3]
OC[C@H]1O[C@H](O[C@]2(CCl)O[C@H](CCl)[C@@H](O)[C@@H]2O)[C@H](O)[C@@H](O)[C@H]1Cl [Sucralose, sucralose] | 29 ± 8 µM | 36 ± 2 µM | n.r. | – | –
O=S(=O)(O)NC1CCCCC1 [Cyclamate-Na, cyclamate-Na] | – | 767 ± 83 µM | n.r. | – | –
C=C(C)C1CC=C(/C=N/O)CC1 (stereo in doubt) [Perillartine, perillartine] | 373 ± 110 µM | 2.54 ± 0.48 µM | n.r. | 61 ± 13 µM | –
COC(=O)[C@H](Cc1ccccc1)NC(=O)[C@H](CC(=O)O)NCCC(C)(C)C [Neotame, neotame] | 2.78 ± 0.69 µM | 0.9 ± 0.09 µM | n.r. | – | –
CC1=CC(=O)NS(=O)(=O)O1 [Acesulfame-K, acesulfame-K] | 164 ± 53 µM | 213 ± 59 µM | n.r. | – | –
B1 | – | – | – | – | 2
